Measurements as given in publication PMC11123012, “Bioactive Alkaloids from the Mangrove-Derived Fungus Nigrospora oryzae SYSU-MS0024” (Marine Drugs, 2024).

Experiments:
AChE = AChE (Homo sapiens, UniProt P22303); experiment: biochemical; conditions: three replicates; read-out: AChE inhibitory activity IC50
Description: All compounds were examined for inhibitory activity against AChE using an optimized colorimetric method described previously. All tests were carried out in three replicates. Donepezil hydrochloride was taken as the positive control.

BV-2 cells = experiment: LPS-induced NO production in BV-2 cells; format: cell-based; conditions: mean ± SD of five replicates
Description: (§1) NO determination: all compounds were examined for the effect on the release of NO by BV-2 cell lines using the method described previously. All experiments were carried out in five replicates. Microglia Viability Assay: The effects of compounds 1–11 on the viability of BV2 microglia were carried out by MTT assay. BV2 microglia were first seeded at a density of 4000 cells per well for 12 or 24 h using a 96-well plate and then treated with compounds at the concentrations of 1– 100 μmol/L for another 36 h. After that, cells were incubated with MTT (0.5 mg/mL) in a 5% CO2 incubator at 37 °C. Three hours later, the medium was removed, and DMSO (150 μL) was added into each well to dissolve formazan crystals. The […] absorbances were measured at 570 nm using an ELISA microplate reader (Biotek, Winooski, VT, USA).

BV2 microglia = experiment: Microglia viability assay (MTT); format: cell-based; conditions: BV-2 cells, concentration of 100.0 μmol/L
Description: as §1

[1] = DPPH free radical scavenging assay; conditions: three replicates, read-out: antioxidant activity EC50
Description: An optimized colorimetric method described previously was used to evaluate the DPPH free radical scavenging activities of compounds 1–11 [37]. All tests were measured in three replicates. Vitamin C was taken as a positive control.

influenza A virus H1N1 = system: influenza A virus H1N1; set-up: method as in PMID 34052697; conditions: read-out: anti-influenza A virus H1N1 activity IC50; cited from earlier work

AChE, sequence (P22303 32-614): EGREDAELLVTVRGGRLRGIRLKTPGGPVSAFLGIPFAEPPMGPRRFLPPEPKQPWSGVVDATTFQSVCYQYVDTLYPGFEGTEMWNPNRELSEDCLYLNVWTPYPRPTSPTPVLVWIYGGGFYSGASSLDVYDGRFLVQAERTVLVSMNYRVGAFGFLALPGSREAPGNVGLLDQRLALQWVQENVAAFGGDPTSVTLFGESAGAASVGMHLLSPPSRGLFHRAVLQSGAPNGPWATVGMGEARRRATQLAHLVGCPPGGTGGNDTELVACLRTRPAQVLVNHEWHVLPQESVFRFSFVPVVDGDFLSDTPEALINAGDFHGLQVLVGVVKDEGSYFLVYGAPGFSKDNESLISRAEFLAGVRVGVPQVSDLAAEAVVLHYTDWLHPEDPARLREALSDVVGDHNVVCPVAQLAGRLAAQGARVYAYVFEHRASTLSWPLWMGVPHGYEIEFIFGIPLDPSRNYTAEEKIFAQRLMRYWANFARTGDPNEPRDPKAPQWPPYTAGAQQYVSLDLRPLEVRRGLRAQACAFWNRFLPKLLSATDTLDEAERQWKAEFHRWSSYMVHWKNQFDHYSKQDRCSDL

CC(O)C12CCC(=O)N1c1ccccc1CO2 (centres unmarked) [Compound 2, Nigrosporine B]
IC50 (AChE): 104 µM | NO accumulation induced by LPS (BV-2 cells; compound at 20 μmol/L): 47.2 ± 0.2 ng/mL | NO accumulation induced by LPS (BV-2 cells; compound at 50 μmol/L): 41.7 ± 0.4 ng/mL | NO accumulation induced by LPS (BV-2 cells; compound at 100 μmol/L): 21.8 ± 0.1 ng/mL | cytotoxicity (BV-2 cell viability) (BV2 microglia): without cytotoxicity

CC(=O)Nc1ccccc1O [Compound 5, N-(2-hydroxyphenyl)-acetamide]
EC50 [1]: 167 µM

O=C1O[C@H]([C@@H](O)CO)C(O)=C1O [Vitamin C, reference compound]
EC50 [1]: 146 µM

CC[C@@H](C)C1=C2NC(=O)[C@@](O)(C/C(=C\C=O)OC)C(=O)N2[C@H](C(C)C)C(=O)N1 [deg-pyrasplorine B]
IC50 (influenza A virus H1N1): 50 µM
